How the values were obtained:
lambsquarters [1] = assay: Test Example 4: herbicidal effect by soil treatment (Table 19, symbol O); type: in vivo, lambsquarters (Chenopodium album)
Summary of the method: (§1)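 Step 1: sow seeds in sterilized diluvial soil, cover ~1.5 cm. Step 2: spray diluted emulsion onto soil surface at predetermined rate. Step 3: greenhouse, 25–30° C, three weeks. Step 4: grade effect on each plant by earlier criteria.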

wild oat [2] = assay: Test Example 4: herbicidal effect by soil treatment (Table 19, symbol I); type: in vivo, wild oat (Avena fatua)
Summary of the method: as §1

Chinese sprangletop = assay: Test Example 3: herbicidal effect by foliage application, Wagner pot (Table 18, symbol D); type: in vivo, chinese sprangletop (Leptochloa chinensis)
Summary of the method: (§2)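 Plants were sown in alluvial soil held under 0.1–0.5 cm standing water and grown 14 days in a greenhouse at 25–30 °C. An emulsifiable formulation, water-diluted to the set dose, was then sprayed onto the foliage, and effects were scored three weeks later using previously defined criteria.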

chickweed [3] = assay: Test Example 5: herbicidal effect by foliage application, plastic box (Table 20, symbol P); type: in vivo, common chickweed (Stellaria media); settings: foliage application, AAH 320 g/ha, three weeks after application
Summary of the method: (§3)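 Foliar spray test: emulsion formulation diluted in water to a set application rate, sprayed onto 14-day-old plants raised in diluvial soil at 25° C to 30° C under glass. Both herbicidal effect and crop effect rated visually three weeks later.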

blackgrass [4] = assay: Test Example 4: herbicidal effect by soil treatment (Table 19, symbol J); type: in vivo, blackgrass (Alopecurus myosuroides)
Summary of the method: as §1

blackgrass [5] = assay: Test Example 5: herbicidal effect by foliage application, plastic box (Table 20, symbol J); type: in vivo, blackgrass (Alopecurus myosuroides); settings: foliage application, three weeks after application
Summary of the method: as §3

windgrass [6] = assay: Test Example 5: herbicidal effect by foliage application, plastic box (Table 20, symbol L); type: in vivo, windgrass (Apera spica-venti); settings: foliage application, three weeks after application
Summary of the method: as §3

green foxtail [7] = assay: Test Example 4: herbicidal effect by soil treatment (Table 19, symbol G); type: in vivo, green foxtail (Setaria viridis)
Summary of the method: as §1

Italian ryegrass [8] = assay: Test Example 4: herbicidal effect by soil treatment (Table 19, symbol K); type: in vivo, Italian ryegrass (Lolium multiflorum)
Summary of the method: as §1

barnyard grass [9] = assay: Test Example 5: herbicidal effect by foliage application, plastic box (Table 20, symbol H); type: in vivo, barnyard grass (Echinochloa crus-galli); settings: foliage application, three weeks after application
Summary of the method: as §3

lambsquarters [10] = assay: Test Example 5: herbicidal effect by foliage application, plastic box (Table 20, symbol O); type: in vivo, lambsquarters (Chenopodium album); settings: foliage application, three weeks after application
Summary of the method: as §3

redroot pigweed [11] = assay: Test Example 5: herbicidal effect by foliage application, plastic box (Table 20, symbol N); type: in vivo, redroot pigweed (Amaranthus retroflexus); settings: foliage application, AAH 320 g/ha, three weeks after application
Summary of the method: as §3

chickweed [12] = assay: Test Example 4: herbicidal effect by soil treatment (Table 19, symbol P); type: in vivo, common chickweed (Stellaria media)
Summary of the method: as §1

barnyard grass [13] = assay: Test Example 3: herbicidal effect by foliage application, Wagner pot (Table 18, symbol H); type: in vivo, barnyard grass (Echinochloa crus-galli)
Summary of the method: as §2

false cleavers = assay: Test Example 4: herbicidal effect by soil treatment (Table 19, symbol Q); type: in vivo, false cleavers (Galium spurium)
Summary of the method: as §1

green foxtail [14] = assay: Test Example 5: herbicidal effect by foliage application, plastic box (Table 20, symbol G); type: in vivo, green foxtail (Setaria viridis); settings: foliage application, three weeks after application
Summary of the method: as §3

persian speedwell [15] = assay: Test Example 4: herbicidal effect by soil treatment (Table 19, symbol R); type: in vivo, Persian speedwell (Veronica persica)
Summary of the method: as §1

rice flat sedge = assay: Test Example 3: herbicidal effect by foliage application, Wagner pot (Table 18, symbol E); type: in vivo, rice flat sedge (Cyperus iria)
Summary of the method: as §2

southern crabgrass [16] = assay: Test Example 5: herbicidal effect by foliage application, plastic box (Table 20, symbol F); type: in vivo, southern crabgrass (Digitaria ciliaris); settings: foliage application, three weeks after application
Summary of the method: as §3

Italian ryegrass [17] = assay: Test Example 5: herbicidal effect by foliage application, plastic box (Table 20, symbol K); type: in vivo, Italian ryegrass (Lolium multiflorum); settings: foliage application, three weeks after application
Summary of the method: as §3

velvetleaf [18] = assay: Test Example 4: herbicidal effect by soil treatment (Table 19, symbol M); type: in vivo, velvetleaf (Abutilon theophrasti)
Summary of the method: as §1

barnyard grass [19] = assay: Test Example 4: herbicidal effect by soil treatment (Table 19, symbol H); type: in vivo, barnyard grass (Echinochloa crus-galli)
Summary of the method: as §1

windgrass [20] = assay: Test Example 4: herbicidal effect by soil treatment (Table 19, symbol L); type: in vivo, windgrass (Apera spica-venti)
Summary of the method: as §1

southern crabgrass [21] = assay: Test Example 4: herbicidal effect by soil treatment (Table 19, symbol F); type: in vivo, southern crabgrass (Digitaria ciliaris)
Summary of the method: as §1

persian speedwell [22] = assay: Test Example 5: herbicidal effect by foliage application, plastic box (Table 20, symbol R); type: in vivo, Persian speedwell (Veronica persica); settings: foliage application, three weeks after application
Summary of the method: as §3

velvetleaf [23] = assay: Test Example 5: herbicidal effect by foliage application, plastic box (Table 20, symbol M); type: in vivo, velvetleaf (Abutilon theophrasti); settings: foliage application, three weeks after application
Summary of the method: as §3

wild oat [24] = assay: Test Example 5: herbicidal effect by foliage application, plastic box (Table 20, symbol I); type: in vivo, wild oat (Avena fatua); settings: foliage application, three weeks after application
Summary of the method: as §3

redroot pigweed [25] = assay: Test Example 4: herbicidal effect by soil treatment (Table 19, symbol N); type: in vivo, redroot pigweed (Amaranthus retroflexus); settings: amount of applied herbicide 320 g/ha
Summary of the method: as §1

[26] = amount of applied herbicide 320 g/ha

CCCC(=O)Oc1c(OC)nn(C)c(=O)c1-c1c(-c2ccc(F)c(F)c2)sc2ccccc12 [1-173]
O: lambsquarters, herbicidal effect rating (lambsquarters [1]; AAH 320 g/ha): 5 (Herbicidal rate of 90% or more (almost completely withered)) | I: wild oat, herbicidal effect rating (wild oat [2]; AAH 320 g/ha): 0 (Herbicidal rate of 5% or less (almost no effect)) | herbicidal effect on D (Chinese sprangletop), rating 0-5 (Chinese sprangletop; 320 g/ha): 0 (Herbicidal rate of 5% or less (almost no effect)) | P: chickweed, herbicidal effect (chickweed [3]): 5 (Herbicidal rate of 90% or more (almost completely withered)) | J: blackgrass, herbicidal effect rating (blackgrass [4]; AAH 320 g/ha): 0 (Herbicidal rate of 5% or less (almost no effect)) | J: blackgrass, herbicidal effect (blackgrass [5]; AAH 320 g/ha): 1 (Herbicidal rate of 5% or more and less than 20%) | L: windgrass, herbicidal effect (windgrass [6]; AAH 320 g/ha): 0 (Herbicidal rate of 5% or less (almost no effect)) | G: green foxtail, herbicidal effect rating (green foxtail [7]; AAH 320 g/ha): 5 (Herbicidal rate of 90% or more (almost completely withered)) | K: Italian ryegrass, herbicidal effect rating (Italian ryegrass [8]; AAH 320 g/ha): 2 (Herbicidal rate of 20% or more and less than 40%) | H: barnyard grass, herbicidal effect (barnyard grass [9]; AAH 320 g/ha): 0 (Herbicidal rate of 5% or less (almost no effect)) | O: lambsquarters, herbicidal effect (lambsquarters [10]; AAH 320 g/ha): 5 (Herbicidal rate of 90% or more (almost completely withered)) | N: redroot pigweed, herbicidal effect (redroot pigweed [11]): 5 (Herbicidal rate of 90% or more (almost completely withered)) | P: chickweed, herbicidal effect rating (chickweed [12]; AAH 320 g/ha): 5 (Herbicidal rate of 90% or more (almost completely withered)) | herbicidal effect on H (barnyard grass), rating 0-5 (barnyard grass [13]; 320 g/ha): 1 (Herbicidal rate of 5% or more and less than 20%) | Q: false cleavers, herbicidal effect rating (false cleavers; AAH 320 g/ha): 3 (Herbicidal rate of 40% or more and less than 70%) | G: green foxtail, herbicidal effect (green foxtail [14]; AAH 320 g/ha): 3 (Herbicidal rate of 40% or more and less than 70%) | R: persian speedwell, herbicidal effect rating (persian speedwell [15]; AAH 320 g/ha): 5 (Herbicidal rate of 90% or more (almost completely withered)) | herbicidal effect on E (rice flat sedge), rating 0-5 (rice flat sedge; 320 g/ha): 5 (Herbicidal rate of 90% or more (almost completely withered)) | F: southern crabgrass, herbicidal effect (southern crabgrass [16]; AAH 320 g/ha): 0 (Herbicidal rate of 5% or less (almost no effect)) | K: Italian ryegrass, herbicidal effect (Italian ryegrass [17]; AAH 320 g/ha): 4 (Herbicidal rate of 70% or more and less than 90%) | M: velvetleaf, herbicidal effect rating (velvetleaf [18]; AAH 320 g/ha): 4 (Herbicidal rate of 70% or more and less than 90%) | H: barnyard grass, herbicidal effect rating (barnyard grass [19]; AAH 320 g/ha): 0 (Herbicidal rate of 5% or less (almost no effect)) | L: windgrass, herbicidal effect rating (windgrass [20]; AAH 320 g/ha): 0 (Herbicidal rate of 5% or less (almost no effect)) | F: southern crabgrass, herbicidal effect rating (southern crabgrass [21]; AAH 320 g/ha): 0 (Herbicidal rate of 5% or less (almost no effect)) | R: persian speedwell, herbicidal effect (persian speedwell [22]; AAH 320 g/ha): 5 (Herbicidal rate of 90% or more (almost completely withered)) | M: velvetleaf, herbicidal effect (velvetleaf [23]; AAH 320 g/ha): 5 (Herbicidal rate of 90% or more (almost completely withered)) | I: wild oat, herbicidal effect (wild oat [24]; AAH 320 g/ha): 1 (Herbicidal rate of 5% or more and less than 20%)

CCSc1ccc(-c2oc3ccc(F)cc3c2-c2c(O)c(C)nn(C)c2=O)cc1 [9-039]
O: lambsquarters, herbicidal effect grade (lambsquarters [1]; [26]): 4 (Herbicidal rate of 70% or more and less than 90%) | I: wild oat, herbicidal effect grade (wild oat [2]; [26]): 0 (Herbicidal rate of 5% or less (almost no effect)) | Herbicidal effect on D (Chinese sprangletop), foliage application (Chinese sprangletop; [26]): 1 (Herbicidal rate of 5% or more and less than 20%) | J: blackgrass, herbicidal effect grade (blackgrass [4]; [26]): 0 (Herbicidal rate of 5% or less (almost no effect)) | herbicidal effect on blackgrass (J) (blackgrass [5]; 320 g/ha): 4 (Herbicidal rate of 70% or more and less than 90%) | herbicidal effect on windgrass (L) (windgrass [6]; 320 g/ha): 5 (Herbicidal rate of 90% or more (almost completely withered)) | G: green foxtail, herbicidal effect grade (green foxtail [7]; [26]): 5 (Herbicidal rate of 90% or more (almost completely withered)) | K: Italian ryegrass, herbicidal effect grade (Italian ryegrass [8]; [26]): 5 (Herbicidal rate of 90% or more (almost completely withered)) | herbicidal effect on barnyard grass (H) (barnyard grass [9]; 320 g/ha): 3 (Herbicidal rate of 40% or more and less than 70%) | herbicidal effect on lambsquarters (O) (lambsquarters [10]; 320 g/ha): 5 (Herbicidal rate of 90% or more (almost completely withered)) | N: redroot pigweed, herbicidal effect grade (redroot pigweed [25]): 5 (Herbicidal rate of 90% or more (almost completely withered)) | P: chickweed, herbicidal effect grade (chickweed [12]; [26]): 3 (Herbicidal rate of 40% or more and less than 70%) | Herbicidal effect on H (barnyard grass), foliage application (barnyard grass [13]; [26]): 5 (Herbicidal rate of 90% or more (almost completely withered)) | Q: false cleavers, herbicidal effect grade (false cleavers; [26]): 0 (Herbicidal rate of 5% or less (almost no effect)) | herbicidal effect on green foxtail (G) (green foxtail [14]; 320 g/ha): 5 (Herbicidal rate of 90% or more (almost completely withered)) | R: persian speedwell, herbicidal effect grade (persian speedwell [15]; [26]): 5 (Herbicidal rate of 90% or more (almost completely withered)) | Herbicidal effect on E (rice flat sedge), foliage application (rice flat sedge; [26]): 5 (Herbicidal rate of 90% or more (almost completely withered)) | herbicidal effect on southern crabgrass (F) (southern crabgrass [16]; 320 g/ha): 5 (Herbicidal rate of 90% or more (almost completely withered)) | herbicidal effect on Italian ryegrass (K) (Italian ryegrass [17]; 320 g/ha): 5 (Herbicidal rate of 90% or more (almost completely withered)) | M: velvetleaf, herbicidal effect grade (velvetleaf [18]; [26]): 3 (Herbicidal rate of 40% or more and less than 70%) | H: barnyard grass, herbicidal effect grade (barnyard grass [19]; [26]): 2 (Herbicidal rate of 20% or more and less than 40%) | L: windgrass, herbicidal effect grade (windgrass [20]; [26]): 0 (Herbicidal rate of 5% or less (almost no effect)) | F: southern crabgrass, herbicidal effect grade (southern crabgrass [21]; [26]): 4 (Herbicidal rate of 70% or more and less than 90%) | herbicidal effect on persian speedwell (R) (persian speedwell [22]; 320 g/ha): 5 (Herbicidal rate of 90% or more (almost completely withered)) | herbicidal effect on velvetleaf (M) (velvetleaf [23]; 320 g/ha): 5 (Herbicidal rate of 90% or more (almost completely withered)) | herbicidal effect on wild oat (I) (wild oat [24]; 320 g/ha): 4 (Herbicidal rate of 70% or more and less than 90%)
